The source of these data is US20090186767A1, “Use of surfactants for mitigating damage to plants from pests” (Cleareso, LLC, priority 2008, published 2009).

“Also recorded” adds a separate entry of the source.

Series [1] deals with larvae of the root weevil, Diaprepes abbreviatus. Description: Immersion of root weevil larvae in test solutions (Example 1). The settings on record: for Mortality of larvae with individual compounds and formulations: five larvae; for Judgement of toxicity to larvae: 0.1 to 5.0% treatments, test terminated at 24 hours. The series is classed as in vivo. How it is done:
The criterion for toxicity with these larvae is the lack of nipping behavior and its consequent black residue from blood loss and the lack of spontaneous movement.
Experimental Design. Larvae and pupae were received from the Florida Dept. of Agriculture's rearing program in Gainesville, Fla. Larvae were shipped as 50-day larvae (larvae that will pupate in about 10 days). Both larvae and pupae were held at 27° C. in 12 hour cycles of light and dark in their containers as separate individuals until experimentation began.
In the testing, five larvae or pupae were removed from their rearing cups and placed in a 150 ml glass beaker. In testing the Soy Technologies Manufacturer's Base (SMTB), a 5% solution was mixed in either water or carbonated water by adding 10 ml of SMTB to a 250 ml beaker and then adding water or carbonated water to the 200 ml mark. The solutions were then immediately added to the beaker with the larvae or pupae to cover them. Controls with water or carbonated water alone were also included. There was a single tray of five larvae for each treatment at each time period and a five larvae control for each time period. Larvae were removed and placed on plastic weighing trays after 5, 10, 15, 20, 25, and 30 minutes. At the end of 30 minutes all organisms were assessed for mortality. Trays with larvae were left on the bench tip for 24 hours and then another mortality assessment was made.
Concentration Series. With the results from the time series above, larvae were held in different concentrations of STMB for 30 minutes. After 30 minutes, solutions were poured off and the trays wiped dry. Assessments were made at 24 or 48 hours with a few assessments at 72 hours dependent on effects. Treatments were: water or carbonated water as controls, and 0.1, 0.5, 1.0, 2.0, 3.0, 4.0 and 5.0% concentrations in either distilled water or carbonated water. Five larvae were used for each control and treatment. Pupae were not used in this assessment.

Series [2] is described as follows: Solubility of test preparations in water (Example 1). The class given is physicochemical. As to conditions: concentration stated in the value.
The subject of series [3] is tomato root galling by M. javanica. The settings on record: in vivo; cited from earlier work.
The test system of series [4] is second stage juveniles of Meloidognye hapla. The settings on record: cited from earlier work; for Toxicity to nematodes: in vivo; for Toxicity to second stage juveniles: 24 hours at a concentration of 50 ppm.
The mark [5] stands for this setting: concentration 0.1 percent, 24 hours.
Setting [6] is: concentration 0.1 percent, 48 hours.
[7] abbreviates: concentration 0.1 percent, 72 hours.
The mark [8] stands for this setting: concentration 1.0 percent, 24 hours.
The mark [9] stands for this setting: concentration 1.0 percent, 48 hours.
Where [10] appears, read: concentration 1.0 percent, 72 hours.
The mark [11] stands for this setting: concentration 3.0 percent, 24 hours.
Where [12] appears, read: concentration 3.0 percent, 48 hours.
Setting [13] is: concentration 3.0 percent, 72 hours.
The mark [14] stands for this setting: concentration 5.0 percent, 24 hours.
Setting [15] is: concentration 5.0 percent, 48 hours.
The mark [16] stands for this setting: concentration 5.0 percent, 72 hours.

For “Polyoxyethylene 10 tridecylether [24938-91-8]”, the “Mortality of larvae with individual compounds and formulations” value (“Mortality of larvae” below) is given as 0 in series [1] (setting [5]); 0 in series [1] (setting [6]); 0 in series [1] (setting [7]); 2 in series [1] (setting [8]); 2 in series [1] (setting [9]); 2 in series [1] (setting [10]). Also, the “Mortality of larvae” value was 0 in series [1] (setting [11]); 0 in series [1] (setting [12]); 0 in series [1] (setting [13]); 0 in series [1] (setting [14]); 3 in series [1] (setting [15]); 3 in series [1] (setting [16]).
As for `COC(=O)CCCCC(=O)OC` [627-93-0, Dimethyl hexanedioate], the “Judgement of toxicity to larvae” value in series [1] is given as “judged non-toxic”. For the same molecule, the “Mortality of larvae” value is 2 in series [1] (setting [5]), 1 in series [1] (setting [8]), 2 in series [1] (setting [11]) and 3 in series [1] (setting [14]). Moreover, the “Solubility of the preparation” value in series [2] (listed as Dimethyladipate) was “Preparations of 1.0, 3.0, and 5.0% concentration were not completely soluble; also recorded: The 0.1% preparation was soluble”.
Regarding `CCCCCCCCC(=O)OC` [Methyl perlargonate], the “Concentration producing reduced galling of plants” value in series [3] is reported as 0.8 microliters/liter.
With `CCCCCCCC/C=C\CCCCCCCC(=O)[O-].[K+]` [potassium oleate], in series [4], the Toxicity to nematodes entry was “relatively nontoxic”.
For the molecule `COC(=O)CCCC(=O)OC` [1119-40-0, pentanedioic acid, dimethyl ester], the “Mortality of larvae” value amounted to 3 in series [1] (setting [6]); 3 in series [1] (setting [7]); 1 in series [1] (setting [9]); 2 in series [1] (setting [10]); 0 in series [1] (setting [12]); 0 in series [1] (setting [13]). Further, the “Mortality of larvae” value in series [1] (setting [15]) is 1; in series [1] (setting [16]), 2.
Take glycol pelargonate: in series [3], the “Concentration producing reduced galling of plants” value was 6.4 microliters/liter.
`CCCCCCCCCC(=O)O` [decanoic acid]: in series [4], the “Toxicity to second stage juveniles” value was “killed all second stage juveniles”.
With `CCCCCCCCCCC(=O)O` [undecanoic acid], the “Toxicity to second stage juveniles” value in series [4] is listed as “killed all second stage juveniles”.
`CCCCCCCC/C=C\CCCCCCCC(=O)O` [Oleic acid]: the Toxicity to nematodes entry in series [4] is “relatively nontoxic”.
In the case of `COC(=O)CCC(=O)OC` [106-65-0, butanedioic acid, dimethyl ester], the “Judgement of toxicity to larvae” value in series [1] was “judged to be non-toxic”. Also, the “Mortality of larvae” value in series [1] (setting [5]) is reported as 2; in series [1] (setting [8]), 2; in series [1] (setting [11]), 1; in series [1] (setting [14]), 1. In series [2] (listed as Dimethyl succinate), the “Solubility of the preparation” value is “The 3% and 5% concentrations were not soluble; also recorded: the 1.0% appears to be just soluble; also recorded: The 0.1% was soluble”.
